Key:
[1] = molar heat capacity at constant pressure; xn = mol fraction of the nth substance listed; conditions: 101 kPa, Liquid, DSC
[2] = xn = mol fraction of the nth substance listed; conditions: 101 kPa, Liquid; for viscosity: Falling or rolling sphere viscometry; for speed of sound: Sing-around technique in a fixed-path interferometer; for mass density: Vibrating tube method

CC12CCC(CC1)C(C)(C)O2 [1,3,3-trimethyl-2-oxabicyclo[2.2.2]octane] + CCCCCC
Conditions	mass density, [2] [kg/m3]	molar heat capacity at constant pressure, [1] [J/K/mol]	speed of sound, [2] [m/s]	viscosity, [2] [mPa·s]
278.15 K, x1 = 0.1043	708.22	194.63	1188.8	0.47
278.15 K, x1 = 0.2069	740.59	200.97	1208.4	0.57
278.15 K, x1 = 0.2965	767.3	206.77	1225.8	0.68
278.15 K, x1 = 0.4005	796.7	213.53	1246.1	0.83
278.15 K, x1 = 0.4991	823.02	220.18	1265.3	1.03
278.15 K, x1 = 0.5999	848.56	227.2	1284.8	1.28
278.15 K, x1 = 0.6995	872.46	234.25	1304	1.66
278.15 K, x1 = 0.8005	895.28	241.41	1322.8	2.19
278.15 K, x1 = 0.8985	916.39	248.64	1341	2.93
278.15 K, x1 = 1	937.25	256.14	1359.6	4.21
298.15 K, x1 = 0.1043	690.43	201.78	1099.9	0.39
298.15 K, x1 = 0.2069	722.9	208.67	1121.2	0.46
298.15 K, x1 = 0.2965	749.7	214.95	1139.8	0.53
298.15 K, x1 = 0.4005	779.19	222.29	1161.4	0.64
298.15 K, x1 = 0.4991	805.59	229.41	1181.5	0.77
298.15 K, x1 = 0.5999	831.19	236.9	1201.8	0.93
298.15 K, x1 = 0.6995	855.13	244.43	1221.6	1.16
298.15 K, x1 = 0.8005	878	252.03	1241.3	1.48
298.15 K, x1 = 0.8985	899.14	259.73	1260	1.9
298.15 K, x1 = 1	920.04	267.69	1278.4	2.6
318.15 K, x1 = 0.1043	672.12	209.13	1012.6	0.34
318.15 K, x1 = 0.2069	704.78	216.45	1035.9	0.38
318.15 K, x1 = 0.2965	731.74	223.08	1055.9	0.43
318.15 K, x1 = 0.4005	761.37	230.81	1078.8	0.51
318.15 K, x1 = 0.4991	787.91	238.36	1100.2	0.6
318.15 K, x1 = 0.5999	813.62	246.29	1121.5	0.71
318.15 K, x1 = 0.6995	837.67	254.22	1142.2	0.86
318.15 K, x1 = 0.8005	860.63	262.24	1162.8	1.06
318.15 K, x1 = 0.8985	881.86	270.35	1182.4	1.32
318.15 K, x1 = 1	902.84	278.65	1201	1.73
338.15 K, x1 = 0.1043	653.14	216.81	926.7	0.3
338.15 K, x1 = 0.2069	685.99	224.63	952.68	0.34
338.15 K, x1 = 0.2965	713.31	231.59	974.13	0.38
338.15 K, x1 = 0.4005	743.17	239.8	998.9	0.43
338.15 K, x1 = 0.4991	769.91	247.71	1021.5	0.49
338.15 K, x1 = 0.5999	795.8	256.09	1044.1	0.57
338.15 K, x1 = 0.6995	819.99	264.46	1065.7	0.68
338.15 K, x1 = 0.8005	843.1	272.99	1087	0.82
338.15 K, x1 = 0.8985	864.46	281.61	1107.2	0.99
338.15 K, x1 = 1	885.57	290.33	1126.7	1.27

Reference: the NIST ThermoML archive (doi:10.1016/j.fluid.2016.08.035)
